Legend:
[1] = buffer, pH 0
Description: The solubility is evaluated at a pH 0f 7.4

[2] = biological target: T1, Cholecystokinin receptor type A (Rattus norvegicus, UniProt P30551)
T1 sequence (P30551 whole entry): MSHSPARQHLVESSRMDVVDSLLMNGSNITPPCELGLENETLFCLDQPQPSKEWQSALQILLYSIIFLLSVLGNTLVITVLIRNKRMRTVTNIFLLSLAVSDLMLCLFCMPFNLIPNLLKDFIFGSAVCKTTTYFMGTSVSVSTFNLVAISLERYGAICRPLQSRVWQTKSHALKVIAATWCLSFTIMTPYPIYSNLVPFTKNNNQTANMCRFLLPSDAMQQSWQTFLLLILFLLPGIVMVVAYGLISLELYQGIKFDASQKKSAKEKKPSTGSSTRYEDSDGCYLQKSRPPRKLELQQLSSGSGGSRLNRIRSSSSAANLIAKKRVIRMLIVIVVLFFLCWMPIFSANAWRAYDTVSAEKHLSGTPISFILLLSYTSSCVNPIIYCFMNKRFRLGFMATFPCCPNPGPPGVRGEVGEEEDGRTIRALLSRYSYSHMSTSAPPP
Description: Inhibition of [125 I]BH CCK-8S binding to Cholecystokinin type A receptor in pancreatic tissue

physchem [3] = experiment: physchem
Description: pKa value is evaluated by nonlinear regression analysis of pH-dependent partition measurements.

physchem [4] = conditions: buffer, pH 7.4
Description: Lipophilicity was measured at pH 7.4

[5] = pKa value for the compound is determined by potentiometric titration.; type: physicochemical
[6] = pKa value is evaluated by nonlinear regression analysis of pH-dependent partition measurements; pKa could not be reliably determined due to poor solubility at low pHs; type: physicochemical

With `Cc1cccc(NC(=O)N[C@@H]2N=C(c3ccccc3)c3ccccc3N(C)C2=O)c1` [L-365260] the S [1] was under 0.002 µg/mL.

`CN1C(=O)[C@H](NC(=O)Nc2cccc(CNc3nn[nH]n3)c2)N=C(c2ccccc2)c2ccccc21` showed an IC50 [2] of 3 µM, an S [1] of 0.02 µg/mL and a pKa (physchem [3]) of 5.9. For the same compound, the logD (physchem [4]) was 1.47.

Work on `Cc1ccc(NC(=O)N[C@@H]2N=C(c3ccccc3)c3ccccc3N(C)C2=O)cc1Nc1nn[nH]n1` yielded an IC50 [2] of 3 µM, an S [1] of 0.88 µg/mL and a pKa (physchem [3]) of 1.37. It also gave a logD (physchem [4]) of 1.37.

Work on `CN1C(=O)[C@H](NC(=O)Nc2ccc3c(c2)N(c2nn[nH]n2)CC3)N=C(c2ccccc2)c2ccccc21` yielded an S [1] of 0.87 µg/mL, a pKa (physchem [3]) of 4.8 and a logD (physchem [4]) of 1.38.

In the case of `Cc1cc([N+](=O)[O-])ccc1Nc1nn[nH]n1`, the pKa [5] is reported as 4.46.

With `CN1C(=O)[C@H](NC(=O)Nc2cccc(N(C)c3nn[nH]n3)c2)N=C(c2ccccc2)c2ccccc21` the pKa [6] was “Insoluble”, the IC50 [2] was 3 µM and the S [1] was 0.16 µg/mL. The logD (physchem [4]) was 1.14.

`O=[N+]([O-])c1ccc(CNc2nn[nH]n2)cc1` gave a pKa [5] of 5.53.

`Cc1ccc(NC(=O)N[C@@H]2N=C(C3CCCCC3)c3ccccc3N(C)C2=O)cc1Nc1nn[nH]n1` gave an S [1] of 57 µg/mL.

`Cc1cc([N+](=O)[O-])ccc1N(C)c1nn[nH]n1` gave a pKa [5] of 5.02.

`CN(c1ccc([N+](=O)[O-])cc1)c1nn[nH]n1` gave a pKa [5] of 4.46.

In the case of `CN1C(=O)[C@H](NC(=O)Nc2cccc(CNc3nn[nH]n3)c2)N=C(C2CCCCC2)c2ccccc21`, the S [1] is reported as 3.7 µg/mL.

With `Cc1ccc(NC(=O)N[C@@H]2N=C(C3CCCCC3)c3ccccc3N(C)C2=O)cc1N(C)c1nn[nH]n1` the IC50 [2] was 1.6 µM and the S [1] was 0.49 µg/mL.

In the case of `O=[N+]([O-])c1ccc(Nc2nn[nH]n2)cc1`, the pKa [5] is reported as 4.23.

For `CN1C(=O)[C@H](NC(=O)Nc2cccc(Nc3nn[nH]n3)c2)N=C(c2ccccc2)c2ccccc21`, the IC50 [2] was 3 µM, the S [1] was 0.1 µg/mL and the pKa (physchem [3]) was 5.1. The logD (physchem [4]) was 0.89.

Compound `CN1C(=O)[C@H](NC(=O)Nc2cccc(N(C)c3nn[nH]n3)c2)N=C(C2CCCCC2)c2ccccc21` has an S [1] of 60 µg/mL.

For `O=[N+]([O-])c1ccc2c(c1)CCN2c1nn[nH]n1`, the pKa [5] was 4.02.

— ChEMBL document CHEMBL1129488, “Controlled modification of acidity in cholecystokinin B receptor antagonists: N-(1,4-benzodiazepin-3-yl)-N'-[3-(tetrazol-5-ylamino) phenyl]ureas” (J Med Chem, 1996)
